Measurements published in patent US20240209019A1, “COMPOUNDS AND METHODS FOR TREATING HYPERKALEMIA” (ARDELYX, INC., priority 2019, published 2024).

target: HSD2 (Homo sapiens (Human), UniProt P80365); assay: HSD2 activity: cortisol conversion in human descending colon organoid monolayer cultures (Example 112); details: human descending colon epithelial cultures on transwells; 30 minute pre-incubation, then 40 nM cortisol for four hours; cortisol HTRF assay
Sequence (P80365 whole entry): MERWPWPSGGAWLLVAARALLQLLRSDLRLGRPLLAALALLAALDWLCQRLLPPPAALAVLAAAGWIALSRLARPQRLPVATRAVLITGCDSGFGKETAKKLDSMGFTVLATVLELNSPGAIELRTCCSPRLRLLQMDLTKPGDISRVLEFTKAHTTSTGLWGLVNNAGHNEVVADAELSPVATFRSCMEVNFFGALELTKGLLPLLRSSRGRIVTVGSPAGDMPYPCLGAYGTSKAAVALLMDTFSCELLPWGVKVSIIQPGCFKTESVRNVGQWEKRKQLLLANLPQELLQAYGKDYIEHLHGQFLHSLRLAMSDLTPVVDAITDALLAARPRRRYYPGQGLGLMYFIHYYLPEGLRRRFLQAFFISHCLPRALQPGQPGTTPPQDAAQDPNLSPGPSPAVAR
Protocol: Human descending colon epithelial stem cells were cultured as 3D organoids in accordance with Sato et al. Gastroenterology. […] Cultures were differentiated using SBM containing ENRA and 30 nM aldosterone on day 3, and cultures were used for assay on day 6 or 7. Compounds were diluted in DMSO and serial dilutions prepared by titrating in DMSO. Compounds were then diluted into DMEM/F12. Transwell plates containing descending colon cultures were washed twice with DMEM/F12 and compound was added to the apical compartment. Cells were incubated with test compound for 30 minutes at 37° C., 5% CO2 to equilibrate across the cell membrane. A second compound plate was prepared in which the serially diluted compounds in DMSO were diluted into DMEM/F12 containing 40 nM cortisol. Following the 30 minute pre-incubation step, the apical media was aspirated and compounds diluted in DMEM/F12 with 40 nM cortisol were added to the apical side of the transwell. The plate was then incubated for four hours at 37° C., 5% CO2. Cortisol levels were measured using a cortisol HTRF assay kit as described by the manufacturer (Cisbio). Concentration-response curves were then plotted and IC50 (and pIC50) values were determined using least squares non-linear regression.
Inhibition of HSD2 activity as measured by the inhibition of the conversion of cortisone to cortisol.

Point of comparison: CC(=O)O[C@H]1CC[C@@]2(C)[C@@H](CC[C@]3(C)[C@@H]2C(=O)C=C2[C@@H]4C[C@@](C)(C(=O)O)CC[C@]4(C)CC[C@]23C)[C@]1(C)C(=O)OCc1oc(=O)oc1C(C)C [Compound 209-3, (2S,4aS,6aS,6bR,8aR,9S,10S,12aS,12bR,14bR)-10-acetoxy-9-(((5-isopropyl-2-oxo-1,3-dioxol-4-yl)methoxy)carbonyl)-2,4a,6a,6b,9,12a-hexamethyl-13-oxo-1,2,3,4,4a,5,6,6a,6b,7,8,8a,9,10,11,12,12a,12b,13,14b-icosahydropicene-2-carboxylic acid], pIC50 7.2. Against it:
- Cc1oc(=O)oc1COC(=O)COC[C@@]1(C)[C@@H]2CC[C@]3(C)[C@H](C(=O)C=C4[C@@H]5C[C@@](C)(C(=O)O)CC[C@]5(C)CC[C@]43C)[C@@]2(C)CC[C@@H]1O [Compound 240-8, (2S,4aS,6aS,6bR,8aR,9R,10S,12aS,12bR,14bR)-10-Hydroxy-2,4a,6a,6b,9,12a-hexamethyl-9-((2-((5-methyl-2-oxo-1,3-dioxol-4-yl)methoxy)-2-oxoethoxy)methyl)-13-oxo-1,2,3,4,4a,5,6,6a,6b,7,8,8a,9,10,11,12,12a,12b,13,14b-icosahydropicene-2-carboxylic acid] — lower, 5
- CC(=O)O[C@H]1CC[C@@]2(C)[C@@H](CC[C@]3(C)[C@@H]2C(=O)C=C2[C@@H]4C[C@@](C)(C(=O)O)CC[C@]4(C)CC[C@]23C)[C@]1(C)C(=O)OCc1oc(=O)oc1C [Compound 243-1, (2S,4aS,6aS,6bR,8aR,9S,10S,12aS,12bR,14bR)-10-Acetoxy-2,4a,6a,6b,9,12a-hexamethyl-9-(((5-methyl-2-oxo-1,3-dioxol-4-yl)methoxy)carbonyl)-13-oxo-1,2,3,4,4a,5,6,6a,6b,7,8,8a,9,10,11,12,12a,12b,13,14b-icosahydropicene-2-carboxylic acid] — higher, 7.5
- Cc1oc(=O)oc1COC(=O)[C@]1(C)[C@@H](OC(=O)CO)CC[C@@]2(C)[C@H]1CC[C@]1(C)[C@@H]2C(=O)C=C2[C@@H]3C[C@@](C)(C(=O)O)CC[C@]3(C)CC[C@]21C [Compound 244-1, (2S,4aS,6aS,6bR,8aR,9S,10S,12aS,12bR,14bR)-10-(2-Hydroxyacetoxy)-2,4a,6a,6b,9,12a-hexamethyl-9-(((5-methyl-2-oxo-1,3-dioxol-4-yl)methoxy)carbonyl)-13-oxo-1,2,3,4,4a,5,6,6a,6b,7,8,8a,9,10,11,12,12a,12b,13,14b-icosahydropicene-2-carboxylic acid] — lower, 6.8
- COC(=O)N[C@H]1CC[C@@]2(C)[C@@H](CC[C@]3(C)[C@@H]2C(=O)C=C2[C@@H]4C[C@@](C)(C(=O)O)CC[C@]4(C)CC[C@]23C)[C@]1(C)C(=O)OCc1oc(=O)oc1C [Compound 281-3, (2S,4aS,6aS,6bR,8aR,9S,10S,12aS,12bR,14bR)-10-((methoxycarbonyl)amino)-2,4a,6a,6b,9,12a-hexamethyl-9-(((5-methyl-2-oxo-1,3-dioxol-4-yl)methoxy)carbonyl)-13-oxo-1,2,3,4,4a,5,6,6a,6b,7,8,8a,9,10,11,12,12a,12b,13,14b-icosahydropicene-2-carboxylic acid] — lower, 6.7
- Cc1oc(=O)oc1COC(=O)[C@]1(C)[C@@H](OC(=O)NCCN2CCOCC2)CC[C@@]2(C)[C@H]1CC[C@]1(C)[C@@H]2C(=O)C=C2[C@@H]3C[C@@](C)(C(=O)O)CC[C@]3(C)CC[C@]21C [Compound 286-4, (2S,4aS,6aS,6bR,8aR,9S,10S,12aS,12bR,14bR)-2,4a,6a,6b,9,12a-hexamethyl-9-(((5-methyl-2-oxo-1,3-dioxol-4-yl)methoxy)carbonyl)-10-(((2-morpholinoethyl)carbamoyl)oxy)-13-oxo-1,2,3,4,4a,5,6,6a,6b,7,8,8a,9,10,11,12,12a,12b,13,14b-icosahydropicene-2-carboxylic acid] — lower, 6.9
- CCc1oc(=O)oc1COC(=O)[C@]1(C)[C@@H](OC(C)=O)CC[C@@]2(C)[C@H]1CC[C@]1(C)[C@@H]2C(=O)C=C2[C@@H]3C[C@@](C)(C(=O)O)CC[C@]3(C)CC[C@]21C [Compound 316-1, (2S,4aS,6aS,6bR,8aR,9S,10S,12aS,12bR,14bR)-10-acetoxy-9-(((5-ethyl-2-oxo-1,3-dioxol-4-yl)methoxy)carbonyl)-2,4a,6a,6b,9,12a-hexamethyl-13-oxo-1,2,3,4,4a,5,6,6a,6b,7,8,8a,9,10,11,12,12a,12b,13,14b-icosahydropicene-2-carboxylic acid] — higher, 7.5
- CC1(C)[C@@H](C(=O)OCC2COC(=O)O2)CC[C@]2(C)[C@H]3C(=O)C=C4[C@@H]5C[C@@](C)(C(=O)O)CC[C@]5(C)CC[C@@]4(C)[C@]3(C)CC[C@@H]12 (stereo partly drawn) [Compound 700-1, (2S,4aS,6aS,6bR,8aS,10S,12aS,12bR,14bR)-2,4a,6a,6b,9,9,12a-heptamethyl-13-oxo-10-{[(2-oxo-1,3-dioxolan-4-yl)methoxy]carbonyl}-1,2,3,4,4a,5,6,6a,6b,7,8,8a,9,10,11,12,12a,12b,13,14b-icosahydropicene-2-carboxylic acid] — lower, 6.1
- CSCC(=O)O[C@H]1CC[C@@]2(C)[C@@H](CC[C@]3(C)[C@@H]2C(=O)C=C2[C@@H]4C[C@@](C)(C(=O)O)CC[C@]4(C)CC[C@]23C)[C@]1(C)C(=O)OCc1oc(=O)oc1C(C)C [Compound 701-1, (2S,4aS,6aS,6bR,8aR,9S,10S,12aS,12bR,14bR)-2,4a,6a,6b,9,12a-hexamethyl-10-{[2-(methylsulfanyl)acetyl]oxy}-13-oxo-9-({[2-oxo-5-(propan-2-yl)-2H-1,3-dioxol-4-yl]methoxy}carbonyl)-1,2,3,4,4a,5,6,6a,6b,7,8,8a,9,10,11,12,12a,12b,13,14b-icosahydropicene-2-carboxylic acid] — lower, 7
- CC(=O)O[C@]1(C)CC[C@@]2(C)[C@@H](CC[C@]3(C)[C@@H]2C(=O)C=C2[C@@H]4C[C@@](C)(C(=O)O)CC[C@]4(C)CC[C@]23C)[C@]1(C)C(=O)OCc1oc(=O)oc1C(C)C [Compound 702-1, (2S,4aS,6aS,6bR,8aR,9S,10R,12aS,12bR,14bR)-10-(acetyloxy)-2,4a,6a,6b,9,10,12a-heptamethyl-13-oxo-9-({[2-oxo-5-(propan-2-yl)-2H-1,3-dioxol-4-yl]methoxy}carbonyl)-1,2,3,4,4a,5,6,6a,6b,7,8,8a,9,10,11,12,12a,12b,13,14b-icosahydropicene-2-carboxylic acid] — lower, 6.4
- CCc1oc(=O)oc1COC(=O)[C@@]1(C)[C@@H]2CC[C@]3(C)[C@H](C(=O)C=C4[C@@H]5C[C@@](C)(C(=O)O)CC[C@]5(C)CC[C@]43C)[C@@]2(C)CC[C@@]1(C)OC(C)=O [Compound 703-1, (2S,4aS,6aS,6bR,8aR,9S,10R,12aS,12bR,14bR)-10-(acetyloxy)-9-{[(5-ethyl-2-oxo-2H-1,3-dioxol-4-yl)methoxy]carbonyl}-2,4a,6a,6b,9,10,12a-heptamethyl-13-oxo-1,2,3,4,4a,5,6,6a,6b,7,8,8a,9,10,11,12,12a,12b,13,14b-icosahydropicene-2-carboxylic acid] — lower, 6.1
